Reference: US20250154141A1 (University of Florida Research Foundation, Incorporated, priority 2021, published 2025)
pIC50: −log10 of the molar value. Where two headings read alike, the source gives them in different places.

Columns and labels:
[1] = target: VCB E3 ligase complex and Bcl-xL (Homo sapiens, UniProt P40337+Q07817); assay: Ternary complex assay (AlphaLISA); assay type: binding; conditions: FIG. 5A
Protocol: To detect ternary complex formation induced by the compounds, AIphaLISA assay was used to measure luminescence signals arisen from proximity of Bcl-xL bounded acceptor beads and VHL- or CRBN—bounded donor beads. Briefly, to a 96-well PCR plate, 10 μL of 20 nM 6-His tagged Bcl-xL protein can be mixed with 10 μL of 20 nM GST-tagged VHL complex protein and 10 μL of serially diluted testing compounds. After incubating at room temperature for 30 […], 5 μL of 160 μg/mL Glutathione donor beads (PerkinEImer) was added and the mixture was incubated at dark for 15 min. 5 μL of 160 μg/mL of anti-His acceptor beads was added lastly and the mixture was incubated for an additional 45 min before being transferred to two adjacent wells (17 μL each) of 384-well white OptiPIate (PerkinEImer). The luminescence signals were detected on a Biotek's Synergy Neo2 multi-mode plate reader installed with an AphaScreen filter cube. All reagents were diluted in an assay buffer of 25 mM HEPES, pH 7.5, 100 mM NaCl, 0.1% BSA, and 0.005% tween 20 prior incubation.

Bcl-2 [2] = target: T1, Bcl-2 (Homo sapiens, UniProt P10415); assay: Protein degradation assay in Jurkat cells (Western blot), Bcl-2; assay type: cell-based; parameters: endogenous in cells; host or cells: Jurkat cells; conditions: for degradation of Bcl-2 (immunoblot): FIGS. 2-3, increasing concentrations 16 hours, 100 nM for various durations; for duration of Bcl-2 degradation after wash-off: FIGS. 2C, 3C, 16 h treatment, cultured without compound 0 to 48; for degradation of BCL-2 by Western blotting analysis: FIG. 1, 16 hours
Protocol: (§1) Jurkat cells and human platelets were incubated with increasing concentrations of test compounds for 16 h. The cells were harvested and lysed in RIPA lysis buffer supplemented with protease and phosphatase inhibitor cocktails. An equal amount of protein ([…]) was resolved on a pre-cast 4-20% SDS-PAGE gel. Proteins were subsequently transferred to NOVEX PVDF membranes by electrophoresis. The membranes were blocked in blocking buffer (5% non-fat dry milk in TBS-T), and incubated with primary antibodies (at optimized concentrations) overnight at 4° C. After three washings in TBS-T, the membranes were incubated with an appropriate FIRP-conjugated secondary antibody for 1 h at room temperature. After extensive washing for three times, the proteins of interest was detected with ECL western blotting detection reagents and recorded with autoradiography (Pierce Biotech, Rockford, IL, USA). The primary antibodies for Bcl-xL (Cat #2762), Bcl-2 (Cat #2872), Mcl-1 (Cat #5453) and j-actin (Cat #4970) were purchased from Cell Signaling Technology. The relative band intensity was measured using ImageJ software and normalized to β-actin.

Bcl-2 [3] = target: T1, Bcl-2; assay: Protein degradation assay in human platelets (Western blot), Bcl-2; assay type: cell-based; parameters: endogenous in cells; host or cells: human platelets; conditions: FIG. 4, 16 h
Protocol: as §1

Bcl-xL [4] = target: T2, Bcl-xL (Homo sapiens, UniProt Q07817); assay: Protein degradation assay in human platelets (Western blot), Bcl-xL; assay type: cell-based; parameters: endogenous in cells; host or cells: human platelets; conditions: FIG. 4, 16 h
Protocol: as §1

RS4; 11 = assay: Cell viability assay (MTS) in RS4; 11 cells; assay type: cell-based; conditions: Homo sapiens
Protocol: (§2) Acute lymphoblastic leukemia cells (MOLT-4 and RS4; 11) were incubated with increasing concentrations of Bcl-xL degraders for 48 h. Cell viability was measured by tetrazolium-based MTS assay.

Bcl-xL [5] = target: T2, Bcl-xL; assay: Protein degradation assay in Jurkat cells (Western blot), Bcl-xL; assay type: cell-based; parameters: endogenous in cells; host or cells: Jurkat cells; conditions: for degradation of Bcl-xL (immunoblot): FIGS. 2-3, increasing concentrations 16 hours, 100 nM for various durations; for duration of Bcl-xL degradation after wash-off: FIGS. 2C, 3C, 16 h treatment, cultured without compound 0 to 48; for degradation of BCL-XL by Western blotting analysis: FIG. 1, 16 hours
Protocol: as §1

MOLT-4 = assay: Cell viability assay (MTS) in MOLT-4 cells; assay type: cell-based; conditions: Homo sapiens
Protocol: as §2

human platelets = assay: Platelet toxicity assay (MTS viability); assay type: cell-based; conditions: for pIC50: Platelet, human platelets, 48 h; for Platelets/MOLT-4 IC50 Fold change: ratio of platelet IC50 to MOLT-4 IC50
Protocol: Platelet-rich plasma (PRP) was purchased from Life South Community Blood Centers (Gainesville, FL, USA). PRP was transferred into a 50 mL tube containing 5 mL of the acid citrate buffer (Cat. No. sc-214744, Santa Cruz Biotechnology). To prevent clotting, prostaglandin E1 (PGE1, Cat. No. sc-201223A, Santa Cruz Biotechnology, Dallas, TX, USA) and apyrase (Cat. No. A6237, Sigma-Aldrich, St. Louis, MO, USA) were added to final concentrations of […] and 0.2 U/mL, respectively. After gently mixing the solution, platelets were pelleted by centrifugation at 1200 g for 10 min without break. Pelleted platelets were gently washed without disturbing platelets using 2 mL of HEPES Tyrode's buffer (Cat. No. PY-921WB, Boston BioProducts, Ashland, MA, USA) containing […] PGE1 and 0.2 U/mL apyrase. After washing, pellets were gently suspended in 10 mL of HEPES Tyrode's buffer containing […] PGE1 and 0.2 U/mL apyrase. Then, the platelet number was counted using a HEMAVET 950FS hematology analyzer (Drew Scientific, Inc., Oxford, CT, USA). For viability assays, the platelet number was adjusted to 2×10^8/mL in HEPES Tyrode's buffer containing […] PGE1 and 0.2 U/mL apyrase. Each treatment was given in 2 mL of the platelet suspension in 15 mL polypropylene tubes. The tubes were placed on a rotating platform at room temperature, and the viability of platelets was measured after 48 h treatment by using the MTS reagent (Cat. No. G1111, Promega, Madison, WI, USA). The data were analyzed by the GraphPad Prism 7 software for the calculation of IC50 values.

[6] = RS4-11, Table 2, 48 hr, MTS, read-out: Anti-Cancer Activity IC50 (48 hr) RS4, 11
[7] = MOLT-4, Table 2, 48 hr, MTS, read-out: Anti-Cancer Activity IC50 (48 hr) MOLT-4

T2 sequence (Q07817 whole entry): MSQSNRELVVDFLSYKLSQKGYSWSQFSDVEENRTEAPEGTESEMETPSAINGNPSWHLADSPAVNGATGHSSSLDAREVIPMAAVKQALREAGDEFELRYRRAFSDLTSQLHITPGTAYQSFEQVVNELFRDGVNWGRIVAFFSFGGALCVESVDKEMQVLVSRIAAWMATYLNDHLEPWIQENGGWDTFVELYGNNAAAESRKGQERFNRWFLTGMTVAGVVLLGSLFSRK
T1 sequence (P10415 whole entry): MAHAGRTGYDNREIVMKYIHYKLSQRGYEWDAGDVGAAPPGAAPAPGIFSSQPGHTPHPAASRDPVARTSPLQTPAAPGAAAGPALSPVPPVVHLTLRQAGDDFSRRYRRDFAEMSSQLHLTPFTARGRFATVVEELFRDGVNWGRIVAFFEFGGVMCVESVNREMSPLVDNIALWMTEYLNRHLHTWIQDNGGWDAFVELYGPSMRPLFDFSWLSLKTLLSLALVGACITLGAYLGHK
Sequence of VCB E3 ligase complex and Bcl-xL (Q07817 whole entry): as the sequence (Q07817 whole entry) above
Sequence of VCB E3 ligase complex and Bcl-xL (P40337 whole entry): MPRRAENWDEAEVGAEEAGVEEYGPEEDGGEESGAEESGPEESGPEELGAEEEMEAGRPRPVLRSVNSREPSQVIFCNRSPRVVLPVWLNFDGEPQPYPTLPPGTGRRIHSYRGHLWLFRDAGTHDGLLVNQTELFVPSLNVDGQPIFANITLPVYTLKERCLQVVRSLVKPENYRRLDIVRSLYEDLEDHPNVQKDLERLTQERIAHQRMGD
Sequence of VCB E3 ligase complex and Bcl-xL (Q15370 whole entry partner): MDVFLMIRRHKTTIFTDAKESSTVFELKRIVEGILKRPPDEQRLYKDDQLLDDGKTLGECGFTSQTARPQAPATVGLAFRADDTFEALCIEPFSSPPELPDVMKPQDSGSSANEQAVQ
Sequence of VCB E3 ligase complex and Bcl-xL (Q15369 whole entry partner): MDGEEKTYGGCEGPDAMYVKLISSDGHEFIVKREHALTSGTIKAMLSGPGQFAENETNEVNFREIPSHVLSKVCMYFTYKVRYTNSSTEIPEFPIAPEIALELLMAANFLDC

| pIC50 (RS4; 11; [6]) | pIC50 (MOLT-4; [7]) | degradation of BCL-2 by Western blotting analysis (Bcl-2 [2]) | degradation of BCL-XL by Western blotting analysis (Bcl-xL [5]) | SMILES | degradation of Bcl-2 (immunoblot) (Bcl-2 [2]) | duration of Bcl-2 degradation after wash-off (Bcl-2 [2]) | Bcl-2 expression levels in human platelets (Bcl-2 [3]) | Bcl-xL expression levels in human platelets (Bcl-xL [4]) | degradation of Bcl-xL (immunoblot) (Bcl-xL [5]) | duration of Bcl-xL degradation after wash-off (Bcl-xL [5]) | Platelets/MOLT-4 IC50 Fold change (human platelets; Table 6) | also measured |
| --- | --- | --- | --- | --- | --- | --- | --- | --- | --- | --- | --- | --- |
| > 7.70 | > 7.70 |  |  | Cc1ncsc1-c1ccc([C@H](C)NC(=O)[C@@H]2C[C@@H](O)CN2C(=O)[C@@H](NC(=O)CN2CCN(CC(=O)N3CCN(C[C@]4(C)CCC(c5ccc(Cl)cc5)=C(CN5CCN(c6ccc(C(=O)NS(=O)(=O)c7ccc(N[C@H](CCN8CCCOCC8)CSc8ccccc8)c(S(=O)(=O)C(F)(F)F)c7)cc6)CC5)C4)CC3)CC2)C(C)(C)C)cc1 [Compound 77] | dose- and time-dependently degraded | long-lasting | do not affect | do not affect | dose- and time-dependently degraded | long-lasting |  | ternary complex formation with the VCB E3 ligase complex and Bcl-xL [1]: formed ternary complexes |
| 7.00 to 7.70 | > 7.70 | exemplary degradation | exemplary degradation | Cc1ncsc1-c1ccc([C@H](C)NC(=O)[C@@H]2C[C@@H](O)CN2C(=O)[C@@H](NC(=O)CN2CCC(CC(=O)N3CCN(CC4(C)CCC(c5ccc(Cl)cc5)=C(CN5CCN(c6ccc(C(=O)NS(=O)(=O)c7ccc(N[C@H](CCN8CCOCC8)CSc8ccccc8)c(S(=O)(=O)C(F)(F)F)c7)cc6)CC5)C4)CC3)CC2)C(C)(C)C)cc1 (stereo partly shown) [Compound 26] |  |  |  |  |  |  |  |  |
| > 7.70 | > 7.70 | exemplary degradation | exemplary degradation | Cc1ncsc1-c1ccc([C@H](C)NC(=O)[C@@H]2C[C@@H](O)CN2C(=O)[C@@H](NC(=O)CCCCCCC(=O)N2CCN(CC3(C)CCC(c4ccc(Cl)cc4)=C(CN4CCN(c5ccc(C(=O)NS(=O)(=O)c6ccc(N[C@H](CCN7C[C@H]8C[C@@H]7CO8)CSc7ccccc7)c(S(=O)(=O)C(F)(F)F)c6)cc5)CC4)C3)CC2)C(C)(C)C)cc1 (stereo partly shown) [Compound 65] |  |  |  |  |  |  | 711 | pIC50 (human platelets; Homo sapiens, Table 6, 4 th time, read-out: Platelets 4 th time 48 h IC50): 5.80; pIC50 (RS4; 11; RS4-11, Table 6, 48 h, read-out: RS4 48 h IC50): 8.38; pIC50 (MOLT-4; MOLT-4, Table 6, 48 h, read-out: MOLT-4 48 h IC50): 8.55 |

| SMILES | pIC50 (RS4; 11; [6]) | pIC50 (MOLT-4; [7]) | degradation of BCL-2 by Western blotting analysis (Bcl-2 [2]) | degradation of BCL-XL by Western blotting analysis (Bcl-xL [5]) | degradation of Bcl-2 (immunoblot) (Bcl-2 [2]) | duration of Bcl-2 degradation after wash-off (Bcl-2 [2]) | Bcl-2 expression levels in human platelets (Bcl-2 [3]) | Bcl-xL expression levels in human platelets (Bcl-xL [4]) | degradation of Bcl-xL (immunoblot) (Bcl-xL [5]) | duration of Bcl-xL degradation after wash-off (Bcl-xL [5]) | Platelets/MOLT-4 IC50 Fold change (human platelets; Table 6) | also measured |
| --- | --- | --- | --- | --- | --- | --- | --- | --- | --- | --- | --- | --- |
| Cc1ncsc1-c1ccc([C@H](C)NC(=O)[C@@H]2C[C@@H](O)CN2C(=O)[C@@H](NC(=O)CN2CCN(CC(=O)N3CCN(CC4(C)CCC(c5ccc(Cl)cc5)=C(CN5CCN(c6ccc(C(=O)NS(=O)(=O)c7ccc(N[C@H](CCN8C[C@H]9C[C@@H]8CO9)CSc8ccccc8)c(S(=O)(=O)C(F)(F)F)c7)cc6)CC5)C4)CC3)CC2)C(C)(C)C)cc1 (stereo partly shown) [Compound 68] |  |  | exemplary degradation | exemplary degradation | dose- and time-dependently degraded | long-lasting | do not affect | do not affect | dose- and time-dependently degraded | long-lasting | 240 | pIC50 (human platelets; Table 3, mean of two independent experiments in triplicates, read-out: Platelets 48 h IC50): 6.11; pIC50 (human platelets; Table 6, 4 th time, read-out: Platelets 4 th time 48 h IC50): 6.11; Platelets/MOLT-4 IC50 Fold change (human platelets; Table 3): 240; pIC50 (RS4; 11; RS4-11, 48 h, read-out: Anti-Cancer Activity IC50 (48 hr) RS4, 11): > 7.70; pIC50 (RS4; 11; RS4-11, 48 h, read-out: RS4 48 h IC50): 8.30; pIC50 (MOLT-4; MOLT-4, 48 h, read-out: Anti-Cancer Activity IC50 (48 hr) MOLT-4): > 7.70; pIC50 (MOLT-4; MOLT-4, 48 h, read-out: MOLT-4 48 h IC50): 8.49 |
